# What was measured:
# [1] = system: demyelinated cerebellar brain slices; experiment: Ex vivo (re)myelination in lysolecithin-demyelinated cerebellar brain slices; format: cell-based, mouse; settings: 14-days treatment, vs vehicle
# Description: FIG. 6: Inhibition of PDE4 by roflumilast induces (re)myelination in demyelinated brain slices. Mouse brain slices ([…]) were trimmed from the cerebellum of p10 C57bl6 pups. After 1 week in culture, brain slices were demyelinated using lysolecithin (16 h) and subsequently treated for 14 days with 5 μM roflumilast or vehicle (0.1% DMSO). Treatment was repeated every 2 days with a 60% medium replenishment. Brain slices were fixated using 4% paraformaldehyde and stained for MBP, neurofilament and counterstained with the nuclear DAPI dye. Three slices per animal were quantified for % myelinated axons (n:2/group).
# FIG. 7: Inhibition of PDE4D by gebr32a induces (re)myelination in demyelinated brain slices. Mouse brain slices (370 μM) were trimmed from the cerebellum of p10 C57bl6 pups. […] Three slices per animal were quantified for % myelinated axons (n:2/group). […]
# Organotypic cerebellar brain slices were fixed in 4% paraformaldehyde at room temperature for 40 minutes and incubated with primary antibodies diluted in blocking buffer (5% bovine serum albumin (BSA) and 0.05% Tween 20 in PBS) for 4 h at room temperature. […] Quantification was done using Fiji ImageJ by counting the percentage of myelinated axons crossing a predefined cross-sectional path.
# mice with EAE = experiment: Experimental autoimmune encephalomyelitis (EAE) clinical score; format: in vivo, mouse; settings: prophylactic, 27 days
# Description: Fifty-six ten-weeks-old female C57bl6 mice were immunized in the flank and neck with 200 μg/mouse MOG35-55 peptide (Hooke) emulsified in Complete Freund's Adjuvant containing Mycobacterium tuberculosis. Immediately after immunization, treatment was started and lasted for 27 days. Treatment consisted of twice a day a s.c. injection with a 1% DMSO in 0.5% methylcellulose solution, roflumilast (0.3 mg/kg or 3 mg/kg in vehicle) or gebr32a (0.3 mg/kg in vehicle). All animals were sacrificed at day 27. Animals were neurologically scored for clinical signs on a daily basis using the following scores: 0=normal behavior, 0.5=distal limp tail, 1=complete limp tail, 2=limp tail and hind leg inhibition, 2.5=limp tail and weakness of hind legs, 3=limp tail and dragging of hind legs, 3.5=limp tail, complete paralysis of hind legs and animal is unable to right itself when placed on its side, 4=limp tail, complete hind leg paralysis and partial front leg paralysis, 4.5=limp tail, complete hind leg paralysis, partial front leg paralysis and no movement around the cage, 5=death.
# Ten-weeks-old female C57bl6 mice (n=56) were immunized in the flank and neck with 200 μg/mouse MOG35-55 peptide (Hooke) emulsified in Complete Freund's Adjuvant containing Mycobacterium tuberculosis. Immediately after immunization, treatment was started and lasted for 27 days. […]
Compound,MBP alignment with neurofilament (% myelinated axons) ([1]; 0.5 μM),Clinical score of EAE mice (mice with EAE; 0.3 mg/kg s.c. twice a day),MBP alignment with neurofilament (% myelinated axons) ([1]; 5 μM),"Disease score of EAE mice, dose dependence (mice with EAE; 0.3 mg/kg and 3 mg/kg s.c. twice a day)"
OC(CN1CCOCC1)Cn1ccc(-c2ccc(OC(F)F)c(OC3CCCC3)c2)n1 (stereo not shown) [Gebr32a],four-fold increase,no effect,,
O=C(Nc1c(Cl)cncc1Cl)c1ccc(OC(F)F)c(OCC2CC2)c1 [roflumilast],,,four-fold increase,dose-dependent decrease in disease score
